Test results reported in patent publication US9271967B2, “1,2,4-triazolo[4,3-a]pyridine derivatives and their use as positive allosteric modulators of mGluR2 receptors” (Janssen Pharmaceuticals, Inc., priority 2010, dated 2016).

Assays:
[1] = target: T1, human mGluR2 receptor (Homo sapiens, UniProt Q14416); experiment: [35S]GTPγS binding assay (PAM assay); type: biochemical; settings: in presence of glutamate at EC20; for Emax / GTPγS-hmGluR2 PAM Emax: maximal % effect relative to the control glutamate response; for Emax: read-out: GTPγS-hmGluR2 PAM Emax; for EC50: membranes of CHO cells transfected with human mGluR2, -log EC50 in M, read-out: GTPγS-hmGluR2 PAM pEC50 (converted)
T1 construct: expressed in transfected cells; host or cells: CHO cells
Protocol: The [^35S]GTPγS binding assay is a functional membrane-based assay used to study G-protein coupled receptor (GPCR) function whereby incorporation of a non-hydrolysable form of GTP, [^35S]GTPγS (guanosine 5′-triphosphate, labelled with […] ^35S), is measured. The G-protein α subunit catalyzes the exchange of guanosine 5′-diphosphate (GDP) by guanosine triphosphate (GTP) and on activation of the GPCR by an agonist, [^35S]GTPγS, becomes incorporated and cannot be cleaved to continue the exchange cycle (Harper (1998) Current Protocols in Pharmacology 2.6.1-10, John Wiley & Sons, Inc.). […] Here we describe the use of the [^35S]GTPγS binding assay using membranes from cells transfected with the human mGluR2 receptor and adapted from Schaffhauser et al. ((2003) Molecular Pharmacology 4:798-810) for the detection of the positive allosteric modulation (PAM) properties of the compounds of this invention.
CHO-cells were cultured to pre-confluence and stimulated with 5 mM butyrate for 24 h. Cells were then collected by scraping in PBS and cell suspension was centrifuged (10 min at 4000 RPM in benchtop centrifuge). Supernatant was discarded and pellet gently resuspended in 50 mM Tris-HCl, pH 7.4 by mixing with a vortex and pipetting up and down. The suspension was centrifuged at 16,000 RPM (Sorvall RC-5C plus rotor SS-34) for 10 minutes and the supernatant discarded. The pellet was homogenized in 5 mM Tris-HCl, pH 7.4 using an ultra-turrax homogenizer and centrifuged again (18,000 RPM, 20 min, 4° C.). The final pellet was resuspended in 50 mM Tris-HCl, pH 7.4 and stored at −80° C. in appropriate aliquots before use. Protein concentration was determined by the Bradford method (Bio-Rad, USA) with bovine serum albumin as standard.
Measurement of mGluR2 positive allosteric modulatory activity of test compounds was performed as follows. Test compounds and glutamate were diluted in assay buffer containing 10 mM HEPES acid, 10 mM HEPES salt, pH 7.4, 100 mM NaCl, 3 mM MgCl2 and 10 μM GDP. Human mGlu2 receptor-containing membranes were thawed on ice and diluted in assay buffer supplemented with 14 μg/ml saponin. Membranes were pre-incubated with compound alone or together with a predefined (˜EC20) concentration of glutamate (PAM assay) for 30 min at 30° C. After addition of [^35S]GTPγS (f.c. 0.1 nM), assay mixtures were shaken briefly and further incubated to allow [^35S]GTPγS incorporation on activation (30 minutes, 30° C.). Final assay mixtures contained 7 μg of membrane protein in 10 mM HEPES acid, 10 mM HEPES salt, pH 7.4, 100 mM NaCl, 3 mM MgCl2, 10 μM GDP and 10 μg/ml saponin. Total reaction volume was 200 μl. Reactions were terminated by rapid filtration through Unifilter-96 GF/B plates (Perkin Elmer, Mass., USA) using a 96-well filtermate universal harvester. Filters were washed 6 times with ice-cold 10 mM NaH2PO4/10 mM Na2HPO4, pH 7.4. Filters were then air-dried, and 40 μl of liquid scintillation cocktail (Microscint-O) was added to each well. Membrane-bound radioactivity was counted in a Microplate Scintillation and Luminescence Counter from Perkin Elmer.
The concentration-response curves of representative compounds of the present invention—obtained in the presence of EC20 of mGluR2 agonist glutamate to determine positive allosteric modulation (PAM)—were generated using the Lexis software interface (developed at J&J). Data were calculated as % of the control glutamate response, defined as the maximal response that is generated upon addition of glutamate alone. Sigmoid concentration-response curves plotting these percentages versus the log concentration of the test compound were analyzed using non-linear regression analysis. The concentration producing half-maximal effect is then calculated as EC50. The pEC50 values below were calculated as the −log EC50, when the EC50 is expressed in M. Emax is defined as relative maximal effect (i.e. maximal % effect relative to the control glutamate response).

T1 sequence (Q14416 19-872): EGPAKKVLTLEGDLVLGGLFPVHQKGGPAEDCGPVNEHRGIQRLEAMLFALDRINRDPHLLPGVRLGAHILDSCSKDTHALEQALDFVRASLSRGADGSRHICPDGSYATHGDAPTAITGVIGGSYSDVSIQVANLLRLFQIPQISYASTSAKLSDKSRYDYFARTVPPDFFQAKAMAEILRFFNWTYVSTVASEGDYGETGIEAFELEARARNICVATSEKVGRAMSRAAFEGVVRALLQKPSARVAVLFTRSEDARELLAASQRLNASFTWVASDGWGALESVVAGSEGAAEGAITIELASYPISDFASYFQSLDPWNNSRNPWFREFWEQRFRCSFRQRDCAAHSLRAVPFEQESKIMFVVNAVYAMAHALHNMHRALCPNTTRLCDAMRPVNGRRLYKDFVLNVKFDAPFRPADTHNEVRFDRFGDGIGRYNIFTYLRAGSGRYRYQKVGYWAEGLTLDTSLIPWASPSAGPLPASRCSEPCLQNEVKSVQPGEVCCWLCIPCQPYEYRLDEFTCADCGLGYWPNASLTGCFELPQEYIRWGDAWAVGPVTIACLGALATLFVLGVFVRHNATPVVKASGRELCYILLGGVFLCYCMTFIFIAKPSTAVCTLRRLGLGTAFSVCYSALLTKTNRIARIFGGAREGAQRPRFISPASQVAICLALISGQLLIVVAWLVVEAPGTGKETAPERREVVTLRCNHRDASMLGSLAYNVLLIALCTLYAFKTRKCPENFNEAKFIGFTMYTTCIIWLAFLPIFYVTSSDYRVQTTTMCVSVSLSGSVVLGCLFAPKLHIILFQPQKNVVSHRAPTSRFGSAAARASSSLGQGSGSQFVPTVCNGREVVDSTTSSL

Structure (SMILES)	Emax [1] [%]	EC50 [1] [nM]	melting point [°C]	GTPγS-hmGluR2 PAM Emax ([1]; listed as 28b) [%]	GTPγS-hmGluR2 PAM Emax ([1]; listed as 28a) [%]
CCOCc1nnc2c(C(F)(F)F)c(CN[C@H]3CC[C@@H](c4ccccc4)CC3)ccn12 [Co. no. 10, 3-(Ethoxymethyl)-N-(cis-4-phenylcyclohexyl)-8-(trifluoromethyl)-1,2,4-triazolo-[4,3-a]pyridine-7-methanamine]	242	170			
FC(F)(F)c1c(CN[C@H]2CC[C@H](c3ccccc3)CC2)ccn2c(CC3CC3)nnc12 [Co. no. 3, 3-(Cyclopropylmethyl)-N-(trans-4-phenylcyclohexyl)-8-(trifluoromethyl)-1,2,4-triazolo[4,3-a]pyridine-7-methanamine]	235	234	157.4		
FC(F)(F)c1c(CN[C@H]2CC[C@@H](c3ccccc3)CC2)ccn2c(CC3CC3)nnc12 [Co. no. 7, 3-(Cyclopropylmethyl)-N-(cis-4-phenylcyclohexyl)-8-(trifluoromethyl)-1,2,4-triazolo-[4,3-a]pyridine-7-methanamine]	263	42.7			
CCc1nnc2c(C(F)(F)F)c(CN[C@H]3CC[C@H](c4ccccc4)CC3)ccn12 [Co. no. 4, 3-Ethyl-N-(trans-4-phenylcyclohexyl)-8-(trifluoromethyl)-1,2,4-triazolo[4,3-a]-pyridine-7-methanamine]	197	1200			
CCc1nnc2c(C(F)(F)F)c(CN[C@H]3CC[C@@H](c4ccccc4)CC3)ccn12 [Co. no. 8, 3-Ethyl-N-(cis-4-phenylcyclohexyl)-8-(trifluoromethyl)-1,2,4-triazolo[4,3-a]pyridine-7-methanamine]	228	324			
FC(F)(F)c1c(CNC2Cc3ccccc3C2)ccn2c(CC3CC3)nnc12 [Co. no. 6, 3-(Cyclopropylmethyl)-N-(2,3-dihydro-1H-inden-2-yl)-8-(trifluoromethyl)-1,2,4-triazolo[4,3-a]pyridine-7-methanamine]	227	794			
CCc1nnc2c(C(F)(F)F)c(CN[C@H]3CC[C@@H](c4ccc(F)cc4F)CC3)ccn12 [Co. no. 9, N-[Cis-4-(2,4-difluorophenyl)cyclohexyl]-3-ethyl-8-(trifluoromethyl)-1,2,4-triazolo[4,3-a]pyridine-7-methanamine]	209	209			
Fc1ccc(N2CCC(NCc3ccn4c(CC5CC5)nnc4c3C(F)(F)F)CC2)c(F)c1 [Co. no. 2, 3-(Cyclopropylmethyl)-N-[1-(2,4-difluorophenyl)-4-piperidinyl]-8-(trifluoromethyl)-1,2,4-triazolo[4,3-a]pyridine-7-methanamine]	321	617			
CCOCc1nnc2c(C(F)(F)F)c(CN[C@H]3CC[C@H](c4ccccc4)CC3)ccn12 [Co. no. 11, 3-(Ethoxymethyl)-N-(trans-4-phenylcyclohexyl)-8-(trifluoromethyl)-1,2,4-triazolo-[4,3-a]pyridine-7-methanamine]	278				

More lines, now with the values ahead:

Emax [1] [%]	EC50 [1] [nM]	melting point [°C]	GTPγS-hmGluR2 PAM Emax ([1]; listed as 28b) [%]	GTPγS-hmGluR2 PAM Emax ([1]; listed as 28a) [%]	Structure (SMILES)
257	589				Clc1c(CN[C@H]2CC[C@@H](c3ccccc3)CC2)ccn2c(CC3CC3)nnc12 [Co. no. 12, 8-Chloro-3-(cyclopropylmethyl)-N-(cis-4-phenylcyclohexyl)-1,2,4-triazolo-[4,3-a]pyridine-7-methanamine]
201					FC(F)(F)c1c(CNC2COCC2c2ccccc2)ccn2c(CC3CC3)nnc12 (stereo not drawn) [Co. no. 31, Cis-N-{[3-(Cyclopropylmethyl)-8-(trifluoromethyl) [1,2,4]triazolo[4,3-a]pyridin-7-yl]methyl}-4-phenyltetrahydrofuran-3-amine]
	575		285		FC(F)(F)c1c(CNC2CCOc3ccccc32)ccn2c(CC3CC3)nnc12 (single isomer, unassigned) [Co. no. 28b, (4*S)—N-{[3-(Cyclopropylmethyl)-8-(trifluoromethyl) [1,2,4]triazolo[4,3-a]pyridin-7-yl]methyl}-3,4-dihydro-2H-chromen-4-amine]
209		95.8			FC(F)(F)c1c(CN[C@H]2CCO[C@H](c3ccccc3)C2)ccn2c(CC3CC3)nnc12 [Co. no. 29, (2S,4S)—N-{[3-(Cyclopropylmethyl)-8-(trifluoromethyl) [1,2,4]triazolo[4,3-a]pyridin-7-yl]methyl}-2-phenyltetrahydro-2H-pyran-4-amine]
	794			257	FC(F)(F)c1c(CNC2CCOc3ccccc32)ccn2c(CC3CC3)nnc12 (single isomer, unassigned) [Co. no. 28a, (4*R)—N-{[3-(Cyclopropylmethyl)-8-(trifluoromethyl) [1,2,4]triazolo[4,3-a]pyridin-7-yl]methyl}-3,4-dihydro-2H-chromen-4-amine]
267	871				FC(F)(F)c1c(CNC2CC2c2ccccc2)ccn2c(CC3CC3)nnc12 (stereo not drawn) [Co. no. 27, Trans-N-{[3-(Cyclopropylmethyl)-8-(trifluoromethyl)[1,2,4]triazolo[4,3-a]pyridin-7-yl]methyl}-2-phenylcyclopropanamine]
243					Clc1c(CN[C@H]2CC[C@H](c3ccccc3)CC2)ccn2c(CC3CC3)nnc12 [Co. no. 13, 8-Chloro-3-(cyclopropylmethyl)-N-(trans-4-phenylcyclohexyl)-1,2,4-triazolo-[4,3-a]pyridine-7-methanamine]
239	1200	139.6			FC(F)(F)c1c(CN[C@@H]2CCO[C@@H](c3ccccc3)C2)ccn2c(CC3CC3)nnc12 [Co. no. 30, (2R,4R)—N-{[3-(Cyclopropylmethyl)-8-(trifluoromethyl)[1,2,4]triazolo[4,3-a]pyridin-7-yl]methyl}-2-phenyltetrahydro-2H-pyran-4-amine]
